# Source: a melting point compilation (Tetko et al.; mined from patent text by program, amines drawn as free bases though some values may be those of a salt)
row,Compound,melting point
1,O=[N+]([O-])c1cccnc1Nc1ccncc1,165 to 167 °C
2,CCOC(=O)c1cnn(C)c1C(=O)Nc1ccn2nc(N3CCCC3)nc2c1,233 to 234 °C
3,CN1Cc2c(C(=O)OC(C)(C)C)ncn2-c2cccnc2C1=O,234 to 236 °C
4,Cc1ccccc1NC(=NC#N)NC(NC(=O)Cc1ccc2c(c1)OCO2)C(C)(C)C (stereo not given),152 to 153 °C
5,Cc1cc(O)c(S(=O)Cc2ccc(Cl)cc2Cl)c(=O)o1 (stereo not given),144 to 146 °C
6,CCOCCOC(=O)c1cc2cc(Br)ccc2nn1,128 to 130 °C
7,CS(=O)(=O)c1ccc(C(=O)N[C@H]2CC[C@H](CCN3CCN(c4nccc5c4CCO5)CC3)CC2)s1,229 °C
8,COc1cc(-c2ncn(C)c2-c2ccc3c(c2)NCCO3)cc(OC)c1OC,160 to 162 °C
9,Cc1ccc(S(=O)(=O)NC(=O)OCCc2ccc(-n3c(C4CCCCC4)nc4c(C)nc(C)cc43)cc2)cc1,168 °C
10,Cc1[nH]c(=O)[nH]c1C(=O)c1cccs1,212 to 215 °C
11,CN1CCC(NC(=O)c2cccc3oc(-c4ccccc4)nc23)CC1,126 to 128 °C
12,O=C(CN1CCN(C(c2ccc(F)cc2)c2ccc(F)cc2)CC1)NC1(C(=O)O)Cc2ccc(-c3ccc(Cl)cc3)cc2C1 (stereo not given),184 °C
13,CC(=O)Nc1ccc(-c2ccc(C(=O)O)c(=O)[nH]2)cc1,> 260 °C
14,CCNc1c(OC)cc(Cc2cnc(N)nc2N)cc1OC,186 to 188 °C
15,C=CCNc1nc(NCCCC)c2scc(C)c2n1,68 to 70 °C
16,CC(C)COc1ccc(N)cc1C#N,88 to 93 °C
17,O=C(Nc1ccc(-c2ccc(-c3ccc(NC(=O)c4ccccc4)cc3)o2)cc1)c1ccccc1,312 to 314 °C
18,COc1ccc2c(c1O)C13CCN(CC4CC4)C(C2)C1(Cc1ccccc1)CCC(=O)C3 (stereo not given),122 to 124 °C
19,CCC(=O)Nc1cccc2c1C(=O)c1c-2n[nH]c1-c1ccc(OC)cc1,287 °C
20,CC(C)(C)C(=O)c1cncnc1,64 to 66 °C
21,CCc1ncnc(N[C@H]2CC[C@@H](C#N)CC2)c1Cl,131 to 132 °C
22,NC(=O)c1cc(Oc2cccc(CO)c2)ccn1,113 °C
23,CCn1ccc(=O)c2cnc(-c3cccnc3)nc21,195 to 196 °C
24,COc1ccc(COc2ccc(Oc3c(C)cc(/C=C/C(=O)N4CCN(Cc5ccc(/C=C/COc6ccc(C)cc6)cc5)CC4)cc3C)nc2)cc1,130 to 132 °C
25,COC(C#N)=CC1C(C(=O)O)C1(C)C (stereo not given),110 °C

row,Compound,melting point
1,O=C(Nc1ccc(-c2cnc(-c3ccc(NC(=O)C4CCCCC4)cc3)[nH]2)cc1)c1cccnc1,315 to 317 °C
2,O=C1N(Cc2ccc(OC(F)(F)F)cc2)c2ccccc2C12COc1cc3c(cc12)OCO3 (stereo not given),99 to 101 °C
3,CCCOc1ccc(C(=O)Nc2ccc3cc(CN4CCCC4)cnc3c2C)c(F)c1,146 °C
4,CCCCC1CCCCCc2c1oc(=O)c(C(c1ccccc1)C1CC1)c2O (stereo not given),78 to 82 °C
5,COc1ccc(-c2nc3cccnc3n2CC(=O)N2CCCCC2)cc1,153 to 155 °C
6,CCc1nc2c(C)c(C#N)c(C)cc2n1-c1ccc(CCNC(=O)NS(=O)(=O)c2ccc(C)cc2)cc1,140 to 145 °C
7,CC1(C)O[C@H]2[C@H](OCc3ccccc3)O[C@H](C(N)=O)[C@H]2O1,78 °C
8,Cc1noc(NS(=O)(=O)c2ccsc2C(=O)Nc2ccccc2)c1Br,168 to 170 °C
9,NS(=O)(=O)c1cccc(S(=O)(=O)NC2CCC2)c1,140 to 143 °C
10,C#Cc1ccc(C(=O)c2ccc3n2CCC3C(=O)OC)cc1 (stereo not given),113 to 114 °C
11,CN1CC(CC#N)CC2c3cccc4c3C(CN4)CC21 (stereo not given),100 to 104 °C
12,Cc1c(CO)c2c(c(C)c1NC(=O)CC(C)(C)C)C(c1ccc(C(C)C)cc1)CO2 (stereo not given),274 to 275 °C
13,CCCC[C@H](NC(=O)[C@H](CC(C)C)NC(=O)c1ccc(F)cc1F)C(=O)CSCc1ccco1,97 to 98 °C
14,CC(C)c1nn(-c2ccc(C(F)(F)F)cn2)cc1CCCOc1c(Cl)cccc1CC(=O)O,141 to 142 °C
15,CCOC(=O)NC1Cc2ccccc2C1,68 to 68.5 °C
16,CCCn1nnn(-c2cc(OC)c(C(F)(F)F)cc2Cl)c1=O,82 to 83 °C
17,COC(=O)CCC(=O)c1ccc(-c2ccc(Br)cc2)cc1,115 to 116 °C
18,COC(CN(C)CC1CSC2=C(O1)c1ccccc1C(=O)C2=O)OC (stereo not given),80 to 82 °C
19,C=C(C)COc1ccc(Br)cc1CN(CC)c1ccc(C(=O)NS(=O)(=O)c2scnc2C)nn1,128 °C
20,O=C(O)c1ccc(-c2cnc3c(c2)N(Cc2cc(F)ccc2F)C(=O)CN3)cc1,> 300 °C
21,Fc1ccc(CN2CCc3cc(OC[C@H]4CO[C@](Cn5ccnc5)(c5ccc(Cl)cc5Cl)O4)ccc3C2)cc1 (racemic),119 to 120 °C
22,CCCN(CCC)C(=O)COc1cc(C)nc(-c2ccccc2)n1,68 to 69 °C
23,COc1cccc(CC2SCCCS2)c1,54 to 56 °C
24,CCOC(=O)N(CC(=O)O)n1nnc2ccccc21,189 to 192 °C
25,NC(Cc1nc2cc3ccccc3cc2nc1CP(=O)(O)O)C(=O)OCc1ccccc1 (stereo not given),215 °C

row,Compound,melting point
1,CCC(=NOC)c1cccc(Oc2nc(OC)cc(OC)n2)c1C(=O)OC,75 to 77 °C
2,CCn1nc(OCC(=O)c2cccs2)c(-c2ccc(F)cc2)c1-c1ccc(S(C)(=O)=O)cc1,163 to 164 °C
3,CN1C(C)(C)CC(CO)CC1(C)C,84 to 85 °C
4,CCOC(=O)C1=C(C)NC2=C(C(=O)OC2)C1c1ccccc1Cl (stereo not given),211 to 212 °C
5,Cc1nn(-c2ccccn2)cc1COc1ccc(COc2ncccc2CC#N)cc1,138 to 139 °C
6,C=CCOC(=O)c1cccc(NC(=O)NCC(=O)Nc2ccccc2C(=O)c2ccc(OC)cc2)c1,167 to 169 °C
7,CCC[C@H](NC(=O)Cc1cc(C)sc1C)C(=O)Nc1ncc(-c2ccccc2COCC)s1,84 °C
8,CCCCCCCCCCCCCCCCOCC1OCCCC1=O (stereo not given),42 to 43.5 °C
9,CC(C)(O)C#Cc1ccccc1,52 to 53 °C
10,O=c1[nH]nc(-c2ccc(-n3ccnc3)cc2)c2ccccc12,310 to 311 °C
11,CC(C)(C)[Si](C)(C)OCCN(CCON1C(=O)c2ccccc2C1=O)CCON1C(=O)c2ccccc2C1=O,56 to 58 °C
12,COc1ccc2c(c1O)COCc1cc(OC)c(OC)c(OC)c1-2,145 to 147 °C
13,O=C(O)CN(C(=O)c1ccccc1S)C1CCCC1,148 to 150 °C
14,OC1Cc2cc(F)ccc2Sc2ccccc21 (stereo not given),110 to 113 °C
15,COc1ccc(S(=O)(=O)C2(C(=O)O)CCN(Cc3cccc(OC)c3)CC2)cc1,130 °C
16,N#Cc1ccc(C(=O)N2CC2C#N)cc1 (stereo not given),107 to 110 °C
17,COc1cc(NC(=S)NC2CCCCC2)ccc1NNC=O,131 to 133 °C
18,COc1cc(Nc2nccc(-c3cccc(NC(C)=O)c3)n2)cc(OC)c1OC,162 to 164 °C
19,CCO[C@H]1c2ccc3c(nc(C)n3C)c2N[C@H](c2ccccc2)[C@H]1O,170 °C
20,O=C(Nc1ccc(C(=O)N2C[C@@H]3CCCN3S(=O)(=O)c3ccccc32)cc1)c1ccccc1-c1ccccc1,142 to 143 °C
21,CCOC(=O)c1cc(-c2ccncc2)[nH]c1N,193 to 195 °C
22,CC(C)(C)[C@@H]1O[C@@H](O)[C@@H]2[C@H]1C2(C)C,126 °C
23,O=S(=O)(NCCCN1CCC(Oc2ccc(Cl)c(Cl)c2)CC1)c1ccc(-c2ccccn2)s1,115 °C
24,OCCOC(c1ccccc1)(c1ccccc1)c1ccccc1,103 to 106 °C
25,CN1C(=O)Cn2c(nnc2C(F)(F)F)-c2cc(Cl)ccc21,186 to 187 °C

row,Compound,melting point
1,CNc1cccc(C#CCCn2nc3ccccc3n2)n1,150 to 154 °C
2,NC(=O)C(NCCc1cccs1)c1ccccc1Cl (stereo not given),90 to 92 °C
3,Cn1cnc([N+](=O)[O-])c1CBr,130 to 132 °C
4,CC(=O)Nc1ccc(SCCCCNS(=O)(=O)c2ccc(C)cc2)cc1,104 to 105 °C
5,CCCCCCCCCCCCCCCCOCC(CC(CCCCCCCCCCCCCC)C(=O)NCCO)OCc1ccccc1 (stereo not given),39 to 40 °C
6,CCCN1C(=O)N2CCN=C2c2[nH]cnc21,283 to 285 °C
7,CCS(=O)c1c(C#N)nn(-c2c(Cl)cc(C(F)(F)F)cc2Cl)c1N (stereo not given),173 to 174 °C
8,CCCCc1ccc(NC(=O)c2ccc(N)cc2)cc1,138 °C
9,Cn1nc(C(F)(F)F)cc1-c1ccc(CN2CCN(c3ccc(OCC4CCn5cc([N+](=O)[O-])nc5O4)cc3)CC2)s1 (stereo not given),180 to 181 °C
10,O=C1OCCN1c1ccc(NCC(O)CO)c([N+](=O)[O-])c1 (stereo not given),150 °C
11,CCOC(=O)N(c1ccccc1)c1cc(Cl)ccc1-n1nc(C(=O)O)nc1CCl,115 to 117 °C
12,COc1cc2[nH]c(N(C)Cc3cccc(N)c3)nc(=O)c2c(C)c1OC,268 to 270 °C
13,CN1Cc2c(C#CBr)ncn2-c2ccc(F)cc2C1=O,167 °C
14,O=C1CCC(c2ccc(N3C(=O)c4ccccc4C3=O)cc2)CC1,150 to 152 °C
15,Cc1ccc(N(C)C2CCN(CC(=O)Nc3ccc(NS(C)(=O)=O)cc3)CC2)cc1,128 to 130 °C
16,CCCCNS(=O)(=O)CC(O)C(O)C(CC1CCCCC1)NC(=O)c1ccccc1 (stereo not given),153 to 155 °C
17,OC1CCc2cc3c(cc21)OCO3 (stereo not given),92 to 94 °C
18,CC1(C)CCC(C)(C)c2cc(-c3cc(-c4ccccc4O)ccc3C(=O)O)ccc21,264 to 267 °C
19,CCCCCCCCCCCCCCCCS(=O)(=O)OCc1cc(OC)c(OC)cc1[N+](=O)[O-],81 to 82 °C
20,COc1ccc(Cn2cc3nc(Cl)nc(OCc4ccccc4)c3n2)cc1,150 to 153 °C
21,Nc1c(SC(F)(F)F)c(C=O)nn1-c1c(Cl)cc(CC(F)(F)F)cc1Cl,140 to 143 °C
22,FC(F)(F)c1cccc(-c2ccc3nnc(C(F)(F)F)n3n2)c1,189 °C
23,CC(C)(C)c1ccc(CO)cc1NC(=O)CC1c2ccccc2Oc2ccccc21,137 to 138 °C
24,CN(C1CC(C)(C)Oc2ccc(OCc3ccccc3)cc21)S(C)(=O)=O (stereo not given),114 to 116 °C
25,COC(=O)c1cccc2[nH]cc(C=O)c12,135 °C
